Results published in patent publication US20110212960A1, “NEW COMPOUNDS FOR THE TREATMENT OF CNS DISORDER” (BOEHRINGER INGELHEIM INTERNATIONAL GMBH, priority 2009, published 2011).
Like-named read-outs stand apart in the source and are kept apart here.

Key:
[1] = target: T1, human PDE9A2 (Homo sapiens, UniProt O76083); assay: PDE9A2 enzymatic activity assay (scintillation proximity assay); type: biochemical; details: for inhibition at 10 µM: read-out: % inhibition of PDE9A2
T1 construct: made in house; host or cells: Sf9 insect cells (infected; crude lysate used as enzyme source)
Method: The PDE9A2 enzymatic activity assay was run as scintillation proximity assay (SPA), in general according to the protocol of the manufacturer (Amersham Biosciences, product number: TRKQ 7100).
As enzyme source, lysate (PBS with 1% Triton X-100 supplemented with protease inhibitors, cell debris removed by centrifugation at 13.000 rpm for 30 min) of SF 9 cell expressing the human PDE9A2 was used. The total protein amount included in the assay varied upon infection and production efficacy of the SF9 cells and lay in the range of 0.1-100 ng.
In general, the assay conditions were as follows: • total assay volume: 40 microliter • protein amount: 0.1-50 ng • substrate concentration (cGMP): 20 nanomolar; ˜1 mCi/l • incubation time: 60 min at room temperature • final DMSO concentration: 0.2-1%
The assays were run in 384-well format. The test reagents as well as the enzyme and the substrate were diluted in assay buffer. The assay buffer contained 50 mM Tris, 8.3 mM MgCl2, 1.7 mM EGTA, 0.1% BSA, 0.05% Tween 20; the pH of assay buffer was adjusted to 7.5. The reaction was stopped by applying a PDE9 specific inhibitor (e.g. compounds according to WO04099210 or WO04099211) in excess.
The activity of the positive control (minus the negative control=background) is set to 100% and activity in the presence of test compound is expressed relative to these 100%.

[2] = target: human PDE9A (Homo sapiens, UniProt O76083); details: concentrations of up to 100 micromolar; cited from earlier work
[3] = specific IC50 value lies within the given range, read-out: IC50 within range [nanomolar (nM)]

human PDE9A, sequence (O76083 whole entry): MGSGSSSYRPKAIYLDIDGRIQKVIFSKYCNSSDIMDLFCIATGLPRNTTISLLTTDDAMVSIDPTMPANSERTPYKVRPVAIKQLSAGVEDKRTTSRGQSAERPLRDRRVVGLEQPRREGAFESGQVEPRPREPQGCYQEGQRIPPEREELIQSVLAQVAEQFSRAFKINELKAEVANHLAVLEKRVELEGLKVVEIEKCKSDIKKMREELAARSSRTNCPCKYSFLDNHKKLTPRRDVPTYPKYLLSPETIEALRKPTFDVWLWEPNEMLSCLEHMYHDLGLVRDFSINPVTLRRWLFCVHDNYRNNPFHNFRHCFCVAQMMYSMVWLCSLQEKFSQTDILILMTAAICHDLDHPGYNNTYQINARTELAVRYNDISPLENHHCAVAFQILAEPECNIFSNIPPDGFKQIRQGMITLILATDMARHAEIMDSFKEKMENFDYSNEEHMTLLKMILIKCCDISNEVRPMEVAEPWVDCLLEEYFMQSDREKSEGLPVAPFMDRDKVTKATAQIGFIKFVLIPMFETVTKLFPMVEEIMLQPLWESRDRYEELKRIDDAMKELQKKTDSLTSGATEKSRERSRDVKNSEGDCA
T1 sequence (O76083 1-533 isoform O76083-2): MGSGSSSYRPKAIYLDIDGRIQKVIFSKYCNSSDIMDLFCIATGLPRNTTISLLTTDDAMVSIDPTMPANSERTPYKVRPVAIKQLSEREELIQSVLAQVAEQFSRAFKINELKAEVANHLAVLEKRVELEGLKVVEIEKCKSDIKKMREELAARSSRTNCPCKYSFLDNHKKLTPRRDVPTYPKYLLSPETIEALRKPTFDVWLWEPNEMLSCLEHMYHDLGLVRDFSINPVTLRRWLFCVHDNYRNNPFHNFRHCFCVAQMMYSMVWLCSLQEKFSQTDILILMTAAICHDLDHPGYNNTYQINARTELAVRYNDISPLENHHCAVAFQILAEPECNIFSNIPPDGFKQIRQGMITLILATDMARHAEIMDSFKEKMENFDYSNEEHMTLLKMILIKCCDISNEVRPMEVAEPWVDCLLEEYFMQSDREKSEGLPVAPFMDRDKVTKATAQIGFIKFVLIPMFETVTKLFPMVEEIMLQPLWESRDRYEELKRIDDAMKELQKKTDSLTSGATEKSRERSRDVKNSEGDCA

SMILES	IC50 [1, 3]	inhibition at 10 µM ([1]; at 10 micromolar concentration)	also measured
Cc1ccccc1-n1ncc2c(=O)[nH]c(C3CC3C)nc21 (mixture of isomers) [Example 37]	1 to 200 nM		
COC(=O)C1CCCC(c2nc3c(cnn3-c3ccccc3C)c(=O)[nH]2)C1 (mixture of isomers) [Example 38]	1 to 200 nM		
Cc1ccccc1-n1ncc2c(=O)[nH]c(C3CCCC(O)C3)nc21 (mixture of isomers) [Example 40]	201 to 5000 nM		
Cc1ccccc1-n1ncc2c(=O)[nH]c(C3CCC(O)C(O)C3)nc21 (mixture of isomers) [Example 41]	201 to 5000 nM		
CCOC(=O)C1CCCC(c2nc3c(cnn3C(CC)CC)c(=O)[nH]2)C1 (mixture of isomers) [Example 42]	201 to 5000 nM		
CCC(CC)n1ncc2c(=O)[nH]c(C3CCC(C(=O)Nc4cc(OC)cc(OC)c4)CC3)nc21 (mixture of isomers) [Example 44]	201 to 5000 nM		
O=C([C@H]1CC[C@@H]1c1nc2c(cnn2C2CCC(F)(F)CC2)c(=O)[nH]1)N1CCOCC1 (racemic) [Example 1]	1 to 200 nM	99%	
O=C([C@H]1CC[C@@H]1c1nc2c(cnn2C2CCC(F)(F)CC2)c(=O)[nH]1)N1CC[C@@H](F)C1 (racemic) [Example 2]	1 to 200 nM	100%	
O=C([C@H]1CC[C@@H]1c1nc2c(cnn2C2CCC(F)(F)CC2)c(=O)[nH]1)N1CCC(F)(F)C1 (racemic) [Example 3]	1 to 200 nM	100%	
O=C([C@H]1CC[C@@H]1c1nc2c(cnn2C2CCC(F)(F)CC2)c(=O)[nH]1)N1CC(F)(F)C(F)(F)C1 (racemic) [Example 4]	1 to 200 nM	97%	
O=C([C@H]1CC[C@@H]1c1nc2c(cnn2C2CCC(F)(F)CC2)c(=O)[nH]1)N1CCC2(CC2)C1 (racemic) [Example 5]	1 to 200 nM	100%	
O=C([C@H]1CC[C@@H]1c1nc2c(cnn2C2CCC(F)(F)CC2)c(=O)[nH]1)N1CCC(C(F)(F)F)CC1 (racemic) [Example 6]	1 to 200 nM	101%	
CO[C@@H]1CCN(C(=O)[C@H]2CC[C@@H]2c2nc3c(cnn3C3CCC(F)(F)CC3)c(=O)[nH]2)C1 (racemic) [Example 7]	1 to 200 nM	102%	
O=C([C@H]1CC[C@@H]1c1nc2c(cnn2C2CCC(F)(F)CC2)c(=O)[nH]1)N1C[C@H]2CCC[C@H]2C1 (racemic) [Example 8]			IC50 [1]: 1 to 200 nM; inhibition at 10 µM [1]: 100%
O=C([C@H]1CC[C@@H]1c1nc2c(cnn2C2CCC(F)(F)CC2)c(=O)[nH]1)N1CCC(F)(F)CC1 (racemic) [Example 9]	1 to 200 nM	100%	
CC1(C)CCN(C(=O)[C@H]2CC[C@@H]2c2nc3c(cnn3C3CCC(F)(F)CC3)c(=O)[nH]2)CC1 (racemic) [Example 10]	1 to 200 nM	97%	
O=C([C@H]1CC[C@@H]1c1nc2c(cnn2C2CCC(F)(F)CC2)c(=O)[nH]1)N1CCC(F)CC1 (racemic) [Example 11]	1 to 200 nM	94%	
O=C([C@H]1CC[C@@H]1c1nc2c(cnn2C2CCC(F)(F)CC2)c(=O)[nH]1)N1CCCC1 (racemic) [Example 12]	1 to 200 nM	99%	
COC1(C)CCN(C(=O)[C@H]2CC[C@@H]2c2nc3c(cnn3C3CCC(F)(F)CC3)c(=O)[nH]2)CC1 (racemic) [Example 13]	1 to 200 nM	97%	
O=C([C@H]1CC[C@@H]1c1nc2c(cnn2C2CCC(F)(F)CC2)c(=O)[nH]1)N1CCCC(F)(F)C1 (racemic) [Example 14]	1 to 200 nM	100%	
CC1CCN(C(=O)[C@H]2CC[C@@H]2c2nc3c(cnn3C3CCC(F)(F)CC3)c(=O)[nH]2)CC1 (racemic) [Example 15]	1 to 200 nM	101%	
CC1(C)CN(C(=O)[C@H]2CC[C@@H]2c2nc3c(cnn3C3CCC(F)(F)CC3)c(=O)[nH]2)CCO1 (racemic) [Example 16]	1 to 200 nM	98%	
CCN(CC)C(=O)[C@H]1CC[C@@H]1c1nc2c(cnn2C2CCC(F)(F)CC2)c(=O)[nH]1 (racemic) [Example 17]	1 to 200 nM	99%	
O=C([C@H]1CC[C@@H]1c1nc2c(cnn2C2CCC(F)(F)CC2)c(=O)[nH]1)N1CCCCC1 (racemic) [Example 18]	1 to 200 nM	96%	
O=C([C@H]1CCC[C@@H]1c1nc2c(cnn2C2CCC(F)(F)CC2)c(=O)[nH]1)N1CCC(F)(F)CC1 (racemic) [Example 19]	1 to 200 nM	92%	
O=C([C@H]1CCCC[C@@H]1c1nc2c(cnn2C2CCC(F)(F)CC2)c(=O)[nH]1)N1CCOCC1 (racemic) [Example 20]	201 to 5000 nM	71%	

SMILES	IC50 [1, 3]	inhibition at 10 µM ([1]; at 10 micromolar concentration)	also measured
O=C([C@H]1CCCC[C@@H]1c1nc2c(cnn2C2CCC(F)(F)CC2)c(=O)[nH]1)N1CCCC1 (racemic) [Example 21]	1 to 200 nM	66%	
C#CCNC(=O)C1CCC1c1nc2c(cnn2C2CCC(F)(F)CC2)c(=O)[nH]1 (racemic) [Example 22]	1 to 200 nM	90%	
O=C([C@H]1C[C@@H]1c1nc2c(cnn2C2CCC(F)(F)CC2)c(=O)[nH]1)N1CCCCC1 (racemic) [Example 23]	201 to 5000 nM	92%	
O=C([C@H]1CC[C@@H]1c1nc2c(cnn2C2CCCC2)c(=O)[nH]1)N1CCCCC1 (racemic) [Example 24]	1 to 200 nM	101%	
O=C([C@H]1CCC[C@@H]1c1nc2c(cnn2C2CCC(F)(F)CC2)c(=O)[nH]1)N1CCCCC1 (racemic) [Example 25]	201 to 5000 nM	95%	
O=C(C1CCCC1c1nc2c(cnn2C2CCCC2)c(=O)[nH]1)N1CCCCC1 (racemic) [Example 26]	1 to 200 nM	99%	
CCOC(=O)[C@H]1CC[C@@H]1c1nc2c(cnn2C2CCCC2)c(=O)[nH]1 (racemic) [Example 27]	1 to 200 nM	98%	
O=c1[nH]c([C@@H]2CC[C@H]2CN2CC(F)(F)C(F)(F)C2)nc2c1cnn2C1CCC(F)(F)CC1 (racemic) [Example 28]	1 to 200 nM	94%	
Cc1noc(C2CCC2c2nc3c(cnn3C3CCC(F)(F)CC3)c(=O)[nH]2)n1 (racemic) [Example 32]	1 to 200 nM	91%	
O=c1[nH]c([C@@H]2CC[C@H]2CO)nc2c1cnn2C1CCC(F)(F)CC1 (racemic) [Example 33]	201 to 5000 nM	83%	
O=C([C@@H]1CC[C@@H]1c1nc2c(cnn2C2CCC(F)(F)CC2)c(=O)[nH]1)N1CCCCC1 (racemic) [Example 34]	201 to 5000 nM	57%	
Cc1ccncc1-n1ncc2c(=O)[nH]c([C@H]3C[C@@H]3C)nc21 (racemic) [Example 36]	1 to 200 nM	90%	
O=C(O)[C@H]1CC[C@@H]1c1nc2c(cnn2C2CCC(F)(F)CC2)c(=O)[nH]1 (racemic) [Example 46]	1 to 200 nM	91%	
O=c1[nH]c([C@@H]2CC[C@H]2Cn2cccn2)nc2c1cnn2C1CCC(F)(F)CC1 (racemic) [Example 47]	201 to 5000 nM	89%	
CCC(CC)n1ncc2c(=O)[nH]c(C3CCCC(C(=O)O)C3)nc21 (single isomer, unassigned) [Example 45]	201 to 5000 nM		
CCOC(=O)[C@H]1C[C@H]1c1nc2c(cnn2C(CC)CC)c(=O)[nH]1 (stereo in doubt) [Example 43]	201 to 5000 nM		
O=c1[nH]c(C2CCC2)nc2c1cnn2C1CCCC1 [Example 29]	1 to 200 nM	98%	
O=c1[nH]c(C2CCC2)nc2c1cnn2C1CCC(F)(F)CC1 [Example 30]	1 to 200 nM	96%	
Cc1ccncc1-n1ncc2c(=O)[nH]c(C3CCC3)nc21 [Example 31]	201 to 5000 nM	80%	
Cc1ccncc1-n1ncc2c(=O)[nH]c(C3CC(C)(C)C3)nc21 [Example 35]	201 to 5000 nM	50%	
Cc1ccccc1-n1ncc2c(=O)[nH]c(C3CC3)nc21 [Example 39]	201 to 5000 nM		
CC(=O)Nc1ccc(-c2c[nH]c(=O)cn2)cc1 [SKF94120]			inhibition on the isolated enzyme [2]: no inhibition
OCCN(CCO)c1nc(N2CCCCC2)c2nc(N(CCO)CCO)nc(N3CCCCC3)c2n1 [dipyridamole]			inhibition on the isolated enzyme [2]: no inhibition
COc1ccc(C2CNC(=O)C2)cc1OC1CCCC1 (centres unmarked) [rolipram]			inhibition on the isolated enzyme [2]: no inhibition
CCOC(=O)C1=C[C@]2(CC)CCCN3CCc4c(n1c1ccccc41)[C@@H]32 [vinpocetine]			inhibition on the isolated enzyme [2]: no inhibition
